Where two headings read alike, the source gives them in different places.
Columns and labels:
[1] = test system: histone H2A (Thr128) in L. infantum promastigotes; test: Histone H2A phosphorylation (γH2A) by Western blot; format: cell-based, Leishmania infantum; conditions: 10 μM, 0, 15, 60, 120 min
Procedure: To detect H2A phosphorylation by L. infantum promastigotes, parasites in exponential growing phase (5–6 x 10^6 cells/mL) were incubated at 26 °C with CPT derivatives and indenoisoquinolines at a final concentration in the supplemented 199 standard medium of 10 μM. Control cells were treated with the drug vehicle DMSO using concentrations below 0.1%. After 0, 15, 60 and 120-min incubations, promastigotes were harvested by centrifugation, washed twice in PBS and the pellet resuspended in lysis buffer containing 50 mM Tris (pH:7), 50 mM NaCl, 20 mM NaF, 0.1% Tween 20 and 2x protease inhibitors (PIERCE™ protease inhibitor mini tablets). Twenty micrograms of the different extracts were loaded onto 15% SDS-PAGE gels, electrophoresed and transferred to PVDF membranes (Immobilon-FL, Millipore) using a mini trans-blot electrophoretic transfer cell (Bio-Rad). Polyclonal γH2A antisera were used at a 1:2000 dilution and secondary goat anti-rabbit IgG IRDye680 (Li-Cor Biosciences) was used at a 1:15000 dilution. The peptide competition assay was done incubating the polyclonal γH2A antisera with 50 ng/mL of the appropriate peptide (with and without phosphorylation at Thr residue) in blocking buffer for 1 h at room temperature before blotting. Loading control was performed using a monoclonal α tubulin mouse antibody at 2 μg/mL (final concentration) and a goat anti-mouse IgG IRDye 800 (Li-Cor Biosciences) as secondary antibody. Bands were visualized in an Odissey® (Li-Cor Biosciences) infrared detection facility. The quantification of γH2A signal was done with Bio-Rad Quantity One Analysis Software.

[2] = test system: iRFP L. infantum amastigotes infecting mouse splenocytes; conditions: ref Prada et al., 2013; cited from earlier work
[3] = test system: L. infantum promastigotes; test: Cell cycle analysis by flow cytometry (propidium iodide); format: cell-based, Leishmania infantum; conditions: 1 μM single dose, 0, 8, 24, 48 h
Procedure: One million promastigotes untreated or treated with 1 μM of different indenoisoquinolines were harvested by centrifugation after 0, 8, 24 and 48 h exposure. Promastigotes were washed twice with PBS and fixed by 1 h incubation with 70% methanol at 4 °C. After incubation, cells were centrifuged, washed again with PBS and resuspended in 0.5 mL of citrate buffer (45 mM MgCl2, 20 mM MOPS, 30 mM sodium citrate, 0.1% Triton X-100, pH = 7). Finally, samples with RNAase (50 μg/mL) and propidium iodide ([…]) were incubated at 37 °C during 30 min and analyzed at 589 nm by flow cytometry (Cyan ADP Dako).

[4] = test system: iRFP L. infantum promastigotes; test: Antileishmanial activity on free-living iRFP L. infantum promastigotes (infrared fluorescence viability); format: cell-based; conditions: Leishmania infantum, 72 h, 26 °C
Procedure: Histone phosphorylation assays were performed in promastigotes of L. infantum BCN 150 strain, whereas the antiparasitic activity of the compounds was assessed on the transgenic strain that constitutively expresses the irfp gene encoding the infrared iRFP protein (iRFP L. infantum strain) ([Calvo-Álvarez et al., 2015]), which is derived from L. infantum BCN 150. Both strains were grown at 26 °C in M-199 medium (Gibco) supplemented with 25 mM HEPES pH 7.2, 0.1 mM adenine, 0.0005% (w/v) hemin, 2 μg/mL biopterin, 0.0001% (w/v) biotin, 10% (v/v) heat-inactivated fetal bovine serum (FBS) and an antibiotic cocktail comprising 50 U/mL penicillin and 50 μg/mL streptomycin.
(§1) The antileishmanial activity of the compounds was tested both in promastigotes and in amastigotes infecting mouse splenocytes. For this purpose, 384-well optical bottom black plates (Thermo Scientific) were seeded either with free-living iRFP L. infantum promastigotes or with splenic explants infected with iRFP L. infantum amastigotes, which were incubated at 26 °C or 37 °C, respectively. The viability of both iRFP L. infantum stages was measured by recording the fluorescence emitted by viable cells at 708 nm in an Odyssey (Li-Cor) infrared imaging system after a 72-h period of incubation with different concentrations of the compounds. Dose-response curves were obtained by plotting the infrared fluorescence emission of viable parasites vs. different concentrations of testing compounds and were fitted by nonlinear analysis using the Sigma-Plot 10.0 statistical package. The reduction of infrared emission with respect to the negative control was used to determine the 50% effective concentration to kill the parasites (EC50). Both controls and treated groups were tested with DMSO (drug vehicle) concentrations below 0.1%. All compounds and controls were assayed in triplicate.

[5] = test system: TopIB-DNA complexes in L. infantum promastigotes; test: SDS/K-DNA precipitation (in situ cleavage complex formation); format: cell-based, Leishmania infantum; conditions: 30 min exposure, promastigotes
Procedure: In order to measure the fragmentation of DNA induced by Top poisons, L. infantum promastigotes, previously labeled with 0.5 mCi/mL [2–^14C] thymidine for 24 h, were exposed to different concentrations of indenoisoquinolines for 30 min, followed by precipitation with SDS/KCl, according to the method described previously ([Balaña-Fouce et al., 2012]). DNA fragmentation was determined as the percentage of total labeled DNA, and was calculated as follows: [(dpm in SDS/KCl drug - dpm in SDS/KCl solvent)/(dpm total incorporation)] x 100. Each experiment was run at least in triplicate.

[6] = test system: Leishmania topoisomerase IB (LTopIB); test: Relaxation of supercoiled pSK DNA by recombinant LTopIB; format: biochemical
Procedure: (§2) Expression and purification of LTopIB and hTopIB were carried out according to a previously standardized protocol ([Villa et al., 2003]). The effect of indenoisoquinolines (compounds 1 to 20) on recombinant LTopIB and hTopIB was determined by measuring the relaxation of negatively supercoiled pBluescript-SK DNA plasmid (pSK). Briefly, in a total volume of 20 μL, 100 U of recombinant TopIB were incubated with 0.5 μg of pSK DNA in 10 mM Tris-HCl buffer (pH 7.5), 5 mM MgCl2, 5 mM dithiothreitol (DTT), 0.1 mM EDTA, […] bovine serum albumin, and 150 mM KCl. Different concentrations of indenoisoquinolines were also added. Following a 4-min incubation period at 25 °C, reactions were stopped with 1% (w/v) SDS, and incubated for one extra hour at 37 °C in the presence of 1 mg/mL proteinase K. Subsequently, samples were extracted with 1 vol phenol-chloroform mixture and were loaded on a 1% agarose gel containing 0.1 μg/mL ethidium bromide. The gel was run for 16 h at 4 V/cm, and the images were acquired using a G-Box system (Syngene, United Kingdom).

[7] = Cytotoxicity on uninfected mouse splenocytes (Alamar Blue); format: cell-based; conditions: BALB/c, freshly isolated uninfected mouse splenocytes, non-infected mouse splenocytes, read-out: CC50 (μM) Murine Splenocytes
Procedure: Finally, the cytotoxicity of the compounds was assessed on freshly-isolated mouse splenocytes, which were obtained from uninfected BALB/c mice according to the protocol previously described. Viability of uninfected splenocytes was used to determine the cytotoxic concentration 50 (CC50) by means of the Alamar Blue staining method, according to manufacturer's recommendations (Invitrogen). Selectivity index (SI) for each compound was calculated as the ratio between the CC50 value obtained for splenic cells and the EC50 value for amastigotes.

[8] = molecular target: T1, human Top IB (hTopIB) (Homo sapiens, UniProt P11387); test: Relaxation of supercoiled pSK DNA by recombinant hTopIB; format: biochemical
T1 construct: made in house
T1 sequence (P11387 1-765): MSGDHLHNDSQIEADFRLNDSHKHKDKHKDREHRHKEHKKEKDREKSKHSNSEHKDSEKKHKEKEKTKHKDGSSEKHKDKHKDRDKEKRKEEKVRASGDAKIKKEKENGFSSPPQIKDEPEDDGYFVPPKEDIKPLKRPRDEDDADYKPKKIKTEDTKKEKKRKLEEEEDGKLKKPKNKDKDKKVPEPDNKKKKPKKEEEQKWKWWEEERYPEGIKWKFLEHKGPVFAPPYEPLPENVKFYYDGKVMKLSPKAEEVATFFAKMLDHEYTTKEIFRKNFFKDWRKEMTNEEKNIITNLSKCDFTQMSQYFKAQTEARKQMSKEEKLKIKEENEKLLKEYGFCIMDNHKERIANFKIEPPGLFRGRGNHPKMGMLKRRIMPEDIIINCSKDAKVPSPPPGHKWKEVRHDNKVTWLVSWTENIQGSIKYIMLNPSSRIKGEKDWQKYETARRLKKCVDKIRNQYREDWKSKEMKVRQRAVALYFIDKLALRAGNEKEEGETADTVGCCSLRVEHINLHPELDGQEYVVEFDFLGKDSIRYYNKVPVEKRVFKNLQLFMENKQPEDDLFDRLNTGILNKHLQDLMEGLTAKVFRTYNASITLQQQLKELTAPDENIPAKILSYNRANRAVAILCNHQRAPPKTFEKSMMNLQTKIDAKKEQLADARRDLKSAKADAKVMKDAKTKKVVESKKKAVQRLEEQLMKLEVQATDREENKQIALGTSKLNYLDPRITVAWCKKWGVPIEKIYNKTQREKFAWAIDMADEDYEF
Procedure: as §2

[9] = test system: iRFP L. infantum amastigotes infecting mouse splenocytes; test: Antileishmanial activity on iRFP L. infantum amastigotes in ex vivo murine splenic explants; format: cell-based, Leishmania infantum; conditions: for SI (Selectivity Index): CC50 (splenocytes)/EC50 (amastigotes); for EC50: Leishmania infantum, Splenocyte, splenic-infecting iRFP L. infantum amastigotes, 72 h, 37 °C, read-out: EC50 (μM) L. infantum amastigotes
Procedure: Five-week BALB/c female mice infected intraperitoneally with 1.5 × 10^9 metacyclic iRFP L. infantum promastigotes were sacrificed to eviscerate their spleens, which were processed to obtain a suspension of primary splenocytes. Briefly, freshly dissected spleens were washed with cold phosphate-buffered saline (PBS), cut in small pieces and incubated for 20 min with 5 mL of 2 mg/mL collagenase D (Sigma) prepared in buffer (10 mM HEPES, pH 7.4, 150 mM NaCl, 5 mM KCl, 1 mM MgCl2 and 1.8 mM CaCl2). Then, the cell suspension was passed through a 100 μm cell strainer, harvested by centrifugation (500×g for 7 min at 4 °C), washed twice with PBS, and resuspended in RPMI medium (Gibco) supplemented with 10 mM HEPES, 1 mM sodium pyruvate, 1xRPMI 1640 vitamin mix, 10% (v/v) FBS, 50 U/mL penicillin and 50 μg/mL streptomycin. The cell suspension was cultured in 384-well optical bottom black plates (Thermo Scientific) at 37 °C under 5% CO2 atmosphere.
as §1

| SMILES | γH2A signal (H2A phosphorylation), Western blot [1] | EC50 [2] | effect on cell cycle of promastigotes [3] | EC50 [4] | maximum percentage of SDS/K-DNA precipitable complexes [5] | LTopIB inhibition ([6]; Table 1) | CC50 [7] | hTopIB inhibition ([8]; Table 1) | SI (Selectivity Index) [9] | EC50 [9] | LTopIB inhibition ([6]; Table 3) | hTopIB inhibition ([8]; Table 3) |
| --- | --- | --- | --- | --- | --- | --- | --- | --- | --- | --- | --- | --- |
| CC[C@@]1(O)C(=O)OCc2c1cc1n(c2=O)Cc2cc3ccccc3nc2-1 [CPT, camptothecin] | clear increase in the intensity of the 14-kDa band | 30 nM | – | – | – | – | – | – | – | – | – | – |
| NCCCn1c2c(c3ccc([N+](=O)[O-])cc3c1=O)C(=O)c1cc(F)ccc1-2 [Compound 7] | – | – | arrested the cell cycle of promastigotes in S phase | 1.28 ± 0.08 µM | 33% | ++ (inhibition at 10 μM) | 0.3 ± 0.07 µM | +++ (inhibition at 1 μM) | 8.4 | 0.04 µM | – | – |
| COc1cnc2c(c1)C(=O)c1c-2n(CCCN2CCOCC2)c(=O)c2ccc(OC)cc12 [Compound 17] | – | – | arrested the cell cycle of promastigotes in S phase | 2.92 ± 0.44 µM | – | – | 7.84 ± 0.77 µM | – | 29.0 | 0.27 ± 0.08 µM | +++ (inhibition at 1 μM) | +++ (inhibition at 1 μM) |
| COc1cnc2c(c1)C(=O)c1c-2n(CCCN2CCOCC2)c(=O)c2cc(OC)c(OC)cc12 [Compound 18] | – | – | arrested the cell cycle of promastigotes in S phase | 0.53 ± 0.07 µM | – | – | 3.81 ± 0.51 µM | – | 29.3 | 0.13 ± 0.01 µM | ++ (inhibition at 10 μM) | ++ (inhibition at 10 μM) |
| CCc1c2c(nc3ccc(O)cc13)-c1cc3c(c(=O)n1C2)COC(=O)[C@]3(O)CC [SN38] | clear increase in the intensity of the 14-kDa band | – | – | – | – | – | – | – | – | – | – | – |
| CC[C@@]1(O)C(=O)OCc2c1cc1n(c2=O)Cc2cc3c(CN(C)C)c(O)ccc3nc2-1 [TPT, topotecan] | clear increase in the intensity of the 14-kDa band | – | – | – | – | – | – | – | – | – | – | – |

Source: paper PMC6796659, “Topoisomerase IB poisons induce histone H2A phosphorylation as a response to DNA damage in Leishmania infantum” (International Journal for Parasitology: Drugs and Drug …, 2019)
